Results published in ChEMBL document CHEMBL1201862, “PubChem BioAssay data set” (2004).
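The compound was tested at five concentrations on cells cultured in 96-well plates, with a 48-hour exposure period. GI50: concentration for 50% inhibition of growth.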 The source made the active and inactive calls. Cut-off read from the data, not from the text of the source: active = GI50 up to about 1.1 µM and inactive = higher.

How the values were obtained:
Experiment in all cases: NCI tumour cell line growth inhibition, 48 h
786-0 = system: 786-0
A498 = system: A498
A549 = system: A549
ACHN = system: ACHN
CCRF-CEM = system: CCRF-CEM
COLO 205 = system: COLO 205
DLD-1 = system: DLD-1
DMS-273 = system: DMS-273
EKVX = system: EKVX
HCC 2998 = system: HCC 2998
HCT-116 = system: HCT-116
HCT-15 = system: HCT-15
HL-60 = system: HL-60
HOP-62 = system: HOP-62
HOP-92 = system: HOP-92
HT-29 = system: HT-29
IGROV-1 = system: IGROV-1
KM-20L2 = system: KM-20L2
KM12 = system: KM12
LOX IMVI = system: LOX IMVI
LXFL 529 = system: LXFL 529
M14 = system: M14
M19-MEL = system: M19-MEL
MOLT-4 = system: MOLT-4
Malme-3M = system: Malme-3M
NCI-H226 = system: NCI-H226
NCI-H23 = system: NCI-H23
NCI-H460 = system: NCI-H460
NCI-H522 = system: NCI-H522
OVCAR-3 = system: OVCAR-3
OVCAR-4 = system: OVCAR-4
OVCAR-5 = system: OVCAR-5
OVCAR-8 = system: OVCAR-8
RPMI-8226 = system: RPMI-8226
SF-268 = system: SF-268
SF-295 = system: SF-295
SF-539 = system: SF-539
SK-MEL-28 = system: SK-MEL-28
SK-MEL-2 = system: SK-MEL-2
SK-MEL-5 = system: SK-MEL-5
SK-OV-3 = system: SK-OV-3
SN12C = system: SN12C
SNB-19 = system: SNB-19
SNB-75 = system: SNB-75
SNB-78 = system: SNB-78
SR = system: SR
SW-620 = system: SW-620
TK-10 = system: TK-10
U-251 = system: U-251
UACC-257 = system: UACC-257
UACC-62 = system: UACC-62
UO-31 = system: UO-31
XF498 = system: XF498
BT-549 = system: BT-549
CAKI-1 = system: CAKI-1
DU-145 = system: DU-145
Hs-578T = system: Hs-578T
K562 = system: K562
MCF7 = system: MCF7
MDA-MB-231 = system: MDA-MB-231
MDA-MB-435 = system: MDA-MB-435
MDA-N = system: MDA-N
NCI/ADR-RES = system: NCI/ADR-RES
PC-3 = system: PC-3
RXF 393 = system: RXF 393
T47D = system: T47D

Question: Which results are given for `CC(C)C(Sc1nc(-c2ccccc2)c(-c2ccccc2)[nH]1)c1n[nH]c(=S)n1-c1ccccc1` (configuration not stated)?
Answer: GI50 (786-0): 30.8 µM (inactive); GI50 (A498): 43.3 µM (inactive); GI50 (A549): 33.7 µM (inactive); GI50 (ACHN): 29.6 µM (inactive); GI50 (CCRF-CEM): 23.9 µM (inactive); GI50 (COLO 205): 23.9 µM (inactive); GI50 (DLD-1): 41.5 µM (inactive); GI50 (DMS-273): 23.6 µM (inactive); GI50 (EKVX): 26.2 µM (inactive); GI50 (HCC 2998): 28.4 µM (inactive); GI50 (HCT-116): 41.6 µM (inactive); GI50 (HCT-15): 50.5 µM; GI50 (HL-60): 20.7 µM (inactive); GI50 (HOP-62): 44.6 µM (inactive); GI50 (HOP-92): 22.5 µM (inactive); GI50 (HT-29): 23.8 µM (inactive); GI50 (IGROV-1): 26.4 µM (inactive); GI50 (KM-20L2): 29.1 µM (inactive); GI50 (KM12): 16.1 µM (inactive); GI50 (LOX IMVI): 17.5 µM (inactive); GI50 (LXFL 529): 18.5 µM (inactive); GI50 (M14): 19.2 µM (inactive); GI50 (M19-MEL): 17.5 µM (inactive); GI50 (MOLT-4): 18 µM (inactive); GI50 (Malme-3M): 21.2 µM (inactive); GI50 (NCI-H226): 37.7 µM (inactive); GI50 (NCI-H23): 21.9 µM (inactive); GI50 (NCI-H460): 32.3 µM (inactive); GI50 (NCI-H522): 21 µM (inactive); GI50 (OVCAR-3): 19.6 µM (inactive); GI50 (OVCAR-4): 35.5 µM (inactive); GI50 (OVCAR-5): 24.7 µM (inactive); GI50 (OVCAR-8): 34.5 µM (inactive); GI50 (RPMI-8226): 21.2 µM (inactive); GI50 (SF-268): 29.4 µM (inactive); GI50 (SF-295): 22.3 µM (inactive); GI50 (SF-539): 22.4 µM (inactive); GI50 (SK-MEL-28): 29.9 µM (inactive); GI50 (SK-MEL-2): 20.4 µM (inactive); GI50 (SK-MEL-5): 17.7 µM (inactive); GI50 (SK-OV-3): 40.3 µM (inactive); GI50 (SN12C): 37.2 µM (inactive); GI50 (SNB-19): 25 µM (inactive); GI50 (SNB-75): 66.5 µM (inactive); GI50 (SNB-78): 46 µM (inactive); GI50 (SR): 32.2 µM (inactive); GI50 (SW-620): 23.4 µM (inactive); GI50 (TK-10): 45 µM (inactive); GI50 (U-251): 22.9 µM (inactive); GI50 (UACC-257): 31.7 µM (inactive); GI50 (UACC-62): 11.5 µM (inactive); GI50 (UO-31): 22.8 µM (inactive); GI50 (XF498): 37.7 µM (inactive)

Question: For `Cc1cc2c(c3c1c1ccccc1n3C)C(=O)C=CC2=O`, which GI50 (786-0) is on record?
Answer: 5.6 µM (inactive)

Question: And the GI50 (A498)?
Answer: 47.5 µM (inactive)

Question: What about the GI50 (A549) of the same compound?
Answer: 44.6 µM (inactive)

Question: What about the GI50 (ACHN) of the same compound?
Answer: 21.3 µM (inactive)

Question: What about the GI50 (BT-549) of the same compound?
Answer: 14.1 µM (inactive)

Question: What about the GI50 (CAKI-1) of the same compound?
Answer: 23.2 µM (inactive)

Question: And the GI50 (CCRF-CEM)?
Answer: 0.631 µM (active)

Question: And the GI50 (COLO 205)?
Answer: 29.1 µM (inactive)

Question: What about the GI50 (DLD-1) of the same compound?
Answer: 6.32 µM (inactive)

Question: What about the GI50 (DMS-273) of the same compound?
Answer: 22.5 µM (inactive)

Question: What about the GI50 (DU-145) of the same compound?
Answer: 58.9 µM (inactive)

Question: And the GI50 (EKVX)?
Answer: > 75.5 µM (inactive)

Question: And the GI50 (HCC 2998)?
Answer: 33 µM (inactive)

Question: What about the GI50 (HCT-116) of the same compound?
Answer: 18.8 µM (inactive)

Question: What about the GI50 (HCT-15) of the same compound?
Answer: 13.7 µM

Question: And the GI50 (HL-60)?
Answer: 1.45 µM (inactive)

Question: And the GI50 (HOP-62)?
Answer: 44.1 µM (inactive)

Question: And the GI50 (HOP-92)?
Answer: 12.9 µM (inactive)

Question: What about the GI50 (HT-29) of the same compound?
Answer: 31 µM (inactive)

Question: What about the GI50 (Hs-578T) of the same compound?
Answer: 24.8 µM (inactive)

Question: What about the GI50 (IGROV-1) of the same compound?
Answer: 39.6 µM (inactive)

Question: And the GI50 (K562)?
Answer: 3.15 µM (inactive)

Question: What about the GI50 (KM12) of the same compound?
Answer: 25.2 µM (inactive)

Question: What about the GI50 (LOX IMVI) of the same compound?
Answer: 16.9 µM (inactive)

Question: What about the GI50 (LXFL 529) of the same compound?
Answer: 5.6 µM (inactive)

Question: And the GI50 (M14)?
Answer: 25.6 µM (inactive)

Question: What about the GI50 (MCF7) of the same compound?
Answer: 10.9 µM (inactive)

Question: And the GI50 (MDA-MB-231)?
Answer: 25.7 µM (inactive)

Question: What about the GI50 (MDA-MB-435) of the same compound?
Answer: 28.8 µM (inactive)

Question: And the GI50 (MDA-N)?
Answer: 24.5 µM (inactive)

Question: And the GI50 (MOLT-4)?
Answer: 2 µM (inactive)

Question: And the GI50 (Malme-3M)?
Answer: 28.3 µM (inactive)

Question: What about the GI50 (NCI-H226) of the same compound?
Answer: 40.3 µM (inactive)

Question: And the GI50 (NCI-H23)?
Answer: 10.7 µM (inactive)

Question: What about the GI50 (NCI-H460) of the same compound?
Answer: 33.9 µM (inactive)

Question: What about the GI50 (NCI-H522) of the same compound?
Answer: 13.9 µM (inactive)

Question: What about the GI50 (NCI/ADR-RES) of the same compound?
Answer: 35.8 µM (inactive)

Question: What about the GI50 (OVCAR-3) of the same compound?
Answer: 11.5 µM (inactive)

Question: What about the GI50 (OVCAR-4) of the same compound?
Answer: 12 µM (inactive)

Question: And the GI50 (OVCAR-5)?
Answer: 43.7 µM (inactive)

Question: And the GI50 (OVCAR-8)?
Answer: 22.9 µM (inactive)

Question: What about the GI50 (PC-3) of the same compound?
Answer: 16.9 µM (inactive)

Question: What about the GI50 (RPMI-8226) of the same compound?
Answer: 2.82 µM (inactive)

Question: And the GI50 (RXF 393)?
Answer: 15.3 µM (inactive)

Question: What about the GI50 (SF-268) of the same compound?
Answer: 23.9 µM (inactive)

Question: And the GI50 (SF-295)?
Answer: 32.4 µM (inactive)

Question: And the GI50 (SF-539)?
Answer: 23.8 µM (inactive)

Question: And the GI50 (SK-MEL-28)?
Answer: 19.9 µM (inactive)

Question: And the GI50 (SK-MEL-2)?
Answer: 21.6 µM (inactive)

Question: And the GI50 (SK-MEL-5)?
Answer: 32.3 µM (inactive)

Question: And the GI50 (SK-OV-3)?
Answer: 55.5 µM (inactive)

Question: And the GI50 (SN12C)?
Answer: 27.2 µM (inactive)

Question: What about the GI50 (SNB-19) of the same compound?
Answer: 63.7 µM (inactive)

Question: And the GI50 (SNB-75)?
Answer: 41.6 µM (inactive)

Question: What about the GI50 (SNB-78) of the same compound?
Answer: > 54.1 µM (inactive)

Question: And the GI50 (SR)?
Answer: 0.885 µM (active)

Question: What about the GI50 (SW-620) of the same compound?
Answer: 7.6 µM (inactive)

Question: And the GI50 (T47D)?
Answer: 13 µM (inactive)

Question: What about the GI50 (TK-10) of the same compound?
Answer: 24.2 µM (inactive)

Question: What about the GI50 (U-251) of the same compound?
Answer: 19.3 µM (inactive)

Question: What about the GI50 (UACC-257) of the same compound?
Answer: 18.2 µM (inactive)

Question: What about the GI50 (UACC-62) of the same compound?
Answer: 19.6 µM (inactive)

Question: What about the GI50 (UO-31) of the same compound?
Answer: 16.1 µM (inactive)

Question: What about the GI50 (XF498) of the same compound?
Answer: 17.7 µM (inactive)
